# Reference: US11034685B2, “Aminopyridine derivatives as TAM family kinase inhibitors” (SignalChem Lifesciences Corporation, priority 2013, dated 2021)
# Legend:
# Assay type in all cases: biochemical
# human Axl (473-end) = target: T1, human Axl (473-end) (Homo sapiens, UniProt P30530); assay: Kinase enzymatic activity assay ([33P]-ATP phosphate transfer), Axl; conditions: inhibitory activity on Axl; class symbols
# T1 construct: GST (N); made in house; host or cells: Sf9 insect cells (baculovirus)
# T1 sequence (P30530 473-894 limits assumed): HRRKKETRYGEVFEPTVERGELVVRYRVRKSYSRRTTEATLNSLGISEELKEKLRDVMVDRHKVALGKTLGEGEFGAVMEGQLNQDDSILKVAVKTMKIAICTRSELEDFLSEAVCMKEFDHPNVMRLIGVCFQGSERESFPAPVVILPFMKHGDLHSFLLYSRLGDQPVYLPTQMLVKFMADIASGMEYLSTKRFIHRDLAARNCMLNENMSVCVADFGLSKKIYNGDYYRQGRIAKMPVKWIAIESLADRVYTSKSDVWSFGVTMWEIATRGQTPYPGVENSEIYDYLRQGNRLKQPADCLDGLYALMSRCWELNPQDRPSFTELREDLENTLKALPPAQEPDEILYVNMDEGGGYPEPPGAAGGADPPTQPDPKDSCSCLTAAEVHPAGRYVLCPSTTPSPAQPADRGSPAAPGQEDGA
# Protocol: (§1) Preparation of Active Recombinant Kinase Proteins:
# (§2) Recombinant human Tyro3 (455-end, the gene accession number NM_006293), human Axl (473-end, the gene accession number NM_021913) and human Mer (578-872, the gene accession number NM_006343) were independently expressed by baculovirus in Sf9 insect cells using an N-terminal GST tag. The recombinant proteins were stored at −70° C. in a medium containing 50 mM Tris-HCl, pH 7.5, 150 mM NaCl, 10 mM glutathione, 0.1 mM EDTA, 0.25 mM DTT, 0.1 mM PMSF and 25% glycerol. The recombinant proteins were aliquoted into smaller quantities after centrifugation to avoid repeated handling and multiple freeze/thaw cycles for the most favorable performance.
# (§3) Preparation of Assay Reagents:
# (§4) Kinase Assay Buffer: This buffer solution consisted of the following components: 25 mM MOPS, pH 7.2, 12.5 mM β-glycerol-phosphate, 25 mM MgCl2, 5 mM EGTA, 2 mM EDTA and DTT 0.25 mM which was added prior to use.
# (§5) Kinase Dilution Buffer: Kinase Assay Buffer was diluted at a 1:4 ratio (5× dilution) with distilled water.
# (§6) [^33P]-ATP assay cocktail: In a designated radioactive working area, a 250 μM [^33P]-ATP assay cocktail was prepared by the addition of the following components: 150 μL of 10 mM ATP stock solution, 100 μL [^33P]-ATP (1 mci/100 μL), 5.75 mL of kinase assay buffer. This solution was stored in 1 mL aliquots at −20 OC.
# (§7) ATP stock solution (10 mM): The ATP stock solution was prepared by dissolving 55 mg of ATP in 10 mL of kinase assay buffer. It was stored in 200 μL aliquots at −20° C.
# (§8) Active Kinase Stock Solution: The active recombinant kinase protein (0.1 μg/μL) was diluted with Kinase Dilution Buffer and the activity was assayed using a serial dilution method. The specific activity is expressed in nmoL/min/mg.
# (§9) Substrates: poly(4:1 glu:tyr) is the substrate used for each kinase Tyro3, Axl and Mer: The peptide substrate was dissolved in water to give the final concentration of 1 mg/mL.
# (§10) Test compound solution: Test compound was dissolved in DMSO to obtain a 10 mM solution. The assay solution was prepared by adding 5 μL of this solution to […] of 10% DMSO/water to obtain the final concentration of 50 μM.
# (§11) The enzymatic activity of all three kinases was determined as follows. Using a 96-well plate, the wells were divided into three categories: Blank wells, […] and Test wells. In Test wells, 5 μL of the test compound solution and 5 μL of the substrate solution were added. In Control wells, 5 μL of 10% DMSO/water and 5 μL of the substrate solution were added. In Blank wells, 10 μL of 10% DMSO/water was added. To each well was added 10 μL of Active Kinase Stock Solution to make up the volume in each well to 20 μL. All test samples, controls and blanks were run in duplicate. The reaction was initiated by the addition of 5 μL of [^33P]-ATP assay cocktail, bringing the final volume up to 25 μL in every well. The mixture was incubated at room temperature for 30 minutes. The reaction was terminated by transferring 10 μL of the reaction mixture into a Millipore MultiScreen filter plate (cat. number MSPHN6B50). The filter plate was washed in a 1% phosphoric acid solution with constant gentle shaking for 15 minutes and this step was repeated once. After the plate was dried in air, scintillation fluid was added to each well and the radioactivity in each well in CPM was counted by a Microbeta TriLux. The corrected CPM in each test well was determined by subtracting the average value of Blank well values. Percentage of inhibition of the kinase enzymatic activity by the test compound was determined using the following formula: […]
# (§12) The IC50 values were determined in a similar way following a serial dilution of the test compound. The percentage of inhibition at each concentration was calculated following the above formula. The IC50 was estimated from the curve of % Inhibition against Concentration in log unit using Prism 5, version 5.01.
# [1] = target: T2, Recombinant human Tyro3 (455-end) (Homo sapiens, UniProt Q06418); assay: Kinase enzymatic activity assay ([33P]-ATP phosphate transfer), Tyro3; conditions: inhibitory activity on Tyro3; class symbols
# T2 construct: GST (N); made in house; host or cells: Sf9 insect cells (baculovirus)
# T2 sequence (Q06418 455-890 limits assumed): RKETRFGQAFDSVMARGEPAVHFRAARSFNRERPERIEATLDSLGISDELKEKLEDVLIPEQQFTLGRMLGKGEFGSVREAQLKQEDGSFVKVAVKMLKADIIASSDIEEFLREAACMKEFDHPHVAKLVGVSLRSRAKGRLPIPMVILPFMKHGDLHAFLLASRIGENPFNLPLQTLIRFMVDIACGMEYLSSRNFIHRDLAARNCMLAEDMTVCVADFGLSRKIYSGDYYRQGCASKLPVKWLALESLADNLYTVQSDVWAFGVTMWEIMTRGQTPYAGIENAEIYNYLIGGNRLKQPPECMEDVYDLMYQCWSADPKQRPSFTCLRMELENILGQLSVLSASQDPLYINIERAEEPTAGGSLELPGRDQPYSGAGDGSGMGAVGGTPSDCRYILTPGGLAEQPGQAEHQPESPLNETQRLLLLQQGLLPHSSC
# Protocol: as §1, §2, §3, §4, §5, §6, §7, §8, §9, §10, §11, §12
# human Mer (578-872) = target: T3, human Mer (578-872) (Homo sapiens, UniProt Q12866); assay: Kinase enzymatic activity assay ([33P]-ATP phosphate transfer), Mer; conditions: inhibitory activity on Mer; class symbols
# T3 construct: GST (N); made in house; host or cells: Sf9 insect cells (baculovirus)
# T3 sequence (Q12866 578-872): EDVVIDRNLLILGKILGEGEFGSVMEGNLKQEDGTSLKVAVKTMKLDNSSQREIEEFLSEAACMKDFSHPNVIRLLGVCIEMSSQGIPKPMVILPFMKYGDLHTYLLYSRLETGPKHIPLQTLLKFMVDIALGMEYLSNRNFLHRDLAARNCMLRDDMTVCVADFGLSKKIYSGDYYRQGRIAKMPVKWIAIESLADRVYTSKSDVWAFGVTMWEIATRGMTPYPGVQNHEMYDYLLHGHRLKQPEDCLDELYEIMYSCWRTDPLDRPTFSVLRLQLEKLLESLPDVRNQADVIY
# Protocol: as §1, §2, §3, §4, §5, §6, §7, §8, §9, §10, §11, §12
smiles,measurement,setting,value
"CCCCCCCCCCCCN1CCC(n2cc(-c3cnc(N)c(-c4nc(-c5c(Cl)cccc5Cl)no4)c3)cn2)CC1 [3-(3-(2,6-dichlorophenyl)-1,2,4-oxadiazol-5-yl)-5-(1-(1-dodecylpiperidin-4-yl)-1H-pyrazol-4-yl)pyridin-2-amine]",IC50,human Axl (473-end),1 to 10 µM
same,IC50,[1],< 0.5 µM
same,IC50,human Mer (578-872),< 0.5 µM
"CCN1CCC(n2cc(-c3cnc(N)c(-c4nc(-c5c(Cl)cccc5Cl)no4)c3)cn2)CC1 [3-(3-(2,6-dichlorophenyl)-1,2,4-oxadiazol-5-yl)-5-(1-(1-ethylpiperidin-4-yl)-1H-pyrazol-4-yl)pyridin-2-amine]",IC50,human Axl (473-end),< 0.5 µM
same,IC50,[1],< 0.5 µM
same,IC50,human Mer (578-872),< 0.5 µM
"CN1CCC(n2cc(-c3cnc(N)c(-c4nc(-c5c(Cl)cccc5Cl)no4)c3)cn2)CC1 [3-(3-(2,6-dichlorophenyl)-1,2,4-oxadiazol-5-yl)-5-(1-(1-methylpiperidin-4-yl)-1H-pyrazol-4-yl)pyridin-2-amine]",IC50,human Axl (473-end),< 0.5 µM
same,IC50,[1],< 0.5 µM
same,IC50,human Mer (578-872),< 0.5 µM
"Nc1ncc(-c2cnn(C3CCNCC3)c2)cc1-c1nc(-c2c(Cl)cccc2Cl)no1 [3-(3-(2,6-dichlorophenyl)-1,2,4-oxadiazol-5-yl)-5-(1-(piperidin-4-yl)-1H-pyrazol-4-yl)pyridin-2-amine]",IC50,human Axl (473-end),< 0.5 µM
same,IC50,[1],< 0.5 µM
same,IC50,human Mer (578-872),< 0.5 µM
"Nc1ncc(-c2cnn(C3CCOCC3)c2)cc1-c1nc(-c2c(Cl)cccc2Cl)no1 [3-(3-(2,6-dichlorophenyl)-1,2,4-oxadiazol-5-yl)-5-(1-(tetrahydro-2H-pyran-4-yl)-1H-pyrazol-4-yl)pyridin-2-amine]",IC50,human Axl (473-end),1 to 10 µM
same,IC50,[1],< 0.5 µM
same,IC50,human Mer (578-872),1 to 10 µM
"Nc1ncc(-c2cnn(C3CCNCC3)c2)cc1-c1nc(-c2ccccc2)no1 [3-(3-phenyl-1,2,4-oxadiazol-5-yl)-5-(1-(piperidin-4-yl)-1H-pyrazol-4-yl)pyridin-2-amine]",IC50,human Axl (473-end),< 0.5 µM
same,IC50,[1],< 0.5 µM
same,IC50,human Mer (578-872),< 0.5 µM
"Nc1ncc(-c2cnn(C3CCOCC3)c2)cc1-c1nc(-c2ccccc2)no1 [3-(3-phenyl-1,2,4-oxadiazol-5-yl)-5-(1-(tetrahydro-2H-pyran-4-yl)-1H-pyrazol-4-yl)pyridin-2-amine]",IC50,human Axl (473-end),> 10 µM
same,IC50,[1],> 10 µM
same,IC50,human Mer (578-872),> 10 µM
"Nc1ncc(-c2cn[nH]c2)cc1-c1nc(-c2ccccc2)no1 [3-(3-phenyl-1,2,4-oxadiazol-5-yl)-5-(1H-pyrazol-4-yl)pyridin-2-amine]",IC50,human Axl (473-end),0.5 to 1 µM
same,IC50,[1],1 to 10 µM
same,IC50,human Mer (578-872),1 to 10 µM
"Nc1ncc(-c2cnn(C3CCNCC3)c2)cc1-c1noc(-c2cc(Cl)ccc2Cl)n1 [3-(5-(2,5-dichlorophenyl)-1,2,4-oxadiazol-3-yl)-5-(1-(piperidin-4-yl)-1H-pyrazol-4-yl)pyridin-2-amine]",IC50,human Axl (473-end),< 0.5 µM
same,IC50,[1],< 0.5 µM
same,IC50,human Mer (578-872),0.5 to 1 µM
"Nc1ncc(-c2cn[nH]c2)cc1-c1nnc(-c2cc(F)ccc2F)o1 [3-(5-(2,5-difluorophenyl)-1,3,4-oxadiazol-2-yl)-5-(1H-pyrazol-4-yl)pyridin-2-amine]",IC50,human Axl (473-end),< 0.5 µM
same,IC50,[1],< 0.5 µM
same,IC50,human Mer (578-872),1 to 10 µM
"Nc1ncc(-c2cnn(C3CCNCC3)c2)cc1-c1nnc(-c2c(Cl)ccc(F)c2Cl)o1 [3-(5-(2,6-dichloro-3-fluorophenyl)-1,3,4-oxadiazol-2-yl)-5-(1-(piperidin-4-yl)-1H-pyrazol-4-yl)pyridin-2-amine]",IC50,human Axl (473-end),< 0.5 µM
same,IC50,[1],< 0.5 µM
same,IC50,human Mer (578-872),< 0.5 µM
"CCCCCCCCCCCCN1CCC(n2cc(-c3cnc(N)c(-c4nnc(-c5c(Cl)cccc5Cl)o4)c3)cn2)CC1 [3-(5-(2,6-dichlorophenyl)-1,3,4-oxadiazol-2-yl)-5-(1-(1-dodecylpiperidin-4-yl)-1H-pyrazol-4-yl)pyridin-2-amine]",IC50,human Axl (473-end),1 to 10 µM
same,IC50,[1],0.5 to 1 µM
same,IC50,human Mer (578-872),1 to 10 µM
"CCN1CCC(n2cc(-c3cnc(N)c(-c4nnc(-c5c(Cl)cccc5Cl)o4)c3)cn2)CC1 [3-(5-(2,6-dichlorophenyl)-1,3,4-oxadiazol-2-yl)-5-(1-(1-ethylpiperidin-4-yl)-1H-pyrazol-4-yl)pyridin-2-amine]",IC50,human Axl (473-end),< 0.5 µM
same,IC50,[1],< 0.5 µM
same,IC50,human Mer (578-872),< 0.5 µM
"CN1CCC(n2cc(-c3cnc(N)c(-c4nnc(-c5c(Cl)cccc5Cl)o4)c3)cn2)CC1 [3-(5-(2,6-dichlorophenyl)-1,3,4-oxadiazol-2-yl)-5-(1-(1-methylpiperidin-4-yl)-1H-pyrazol-4-yl)pyridin-2-amine]",IC50,human Axl (473-end),< 0.5 µM
same,IC50,[1],< 0.5 µM
same,IC50,human Mer (578-872),< 0.5 µM
"Nc1ncc(-c2ccn(C3CCNCC3)c2)cc1-c1nnc(-c2c(Cl)cccc2Cl)o1 [3-(5-(2,6-dichlorophenyl)-1,3,4-oxadiazol-2-yl)-5-(1-(piperidin-4-yl)-1H-pyrrol-3-yl)pyridin-2-amine]",IC50,human Axl (473-end),< 0.5 µM
same,IC50,[1],< 0.5 µM
same,IC50,human Mer (578-872),< 0.5 µM
"Nc1ncc(-c2cnn(C3CCOCC3)c2)cc1-c1nnc(-c2c(Cl)cccc2Cl)o1 [3-(5-(2,6-dichlorophenyl)-1,3,4-oxadiazol-2-yl)-5-(1-(tetrahydro-2H-pyran-4-yl)-1H-pyrazol-4-yl)pyridin-2-amine]",IC50,human Axl (473-end),< 0.5 µM
same,IC50,[1],< 0.5 µM
same,IC50,human Mer (578-872),< 0.5 µM
"Nc1ncc(-c2cn[nH]c2)cc1-c1nnc(-c2c(Cl)cccc2Cl)o1 [3-(5-(2,6-dichlorophenyl)-1,3,4-oxadiazol-2-yl)-5-(1H-pyrazol-4-yl)pyridin-2-amine]",IC50,human Axl (473-end),< 0.5 µM
same,IC50,[1],< 0.5 µM
same,IC50,human Mer (578-872),< 0.5 µM
